From patent publication US4230854A, “Analogues of ergot alkaloids” (Societa Farmaceutici Italia S.p.A., priority 1977, dated 1980)

Experiments:
[1] = test system: spasmogenic effect of epinephrine on the isolated guineapig seminal vescicle; assay: adrenergic blockade in vitro: receptor blockade against the spasmogenic effect of epinephrine on the isolated guineapig seminal vescicle; assay type: biochemical; settings: concentration producing 50% inhibition of the effect of epinephrine, estimated graphically
Method: (a) receptors blockade was determined against the spasmogenic effect of
epinephrine on the isolated guineapig seminal vescicle according to
Brugger J. (Helv.Physiol. Acta 3, 117, 1945). Concentration producing 50%
inhibition of the effect of the agonist were estimated graphically for […]

[2] = test system: lethal effect of 0.2 mg/Kg epinephrine; assay: adrenergic blockade in vivo: receptor blockade in rats, protection from the lethal effect of epinephrine; settings: Rattus norvegicus, iv, 5 min, dose protecting 50% of animals from the lethal effect of 0.2 mg/Kg epinephrine injected i.v. 5 min later, estimated graphically
Method: (b) receptor blockade was determined in rats according to Luduena F.P. et
al. (Arch. Int. Pharmacodyn CXXII, 111, 1959). ED50 is the
graphically estimated dose of antagonist protecting 50% of animals from
the lethal effect of 0.2 mg/Kg epinephrine, injected i.v. 5 min later.

[3] = acute toxicity (LD50) in mice; settings: mouse, in vivo, iv, standard procedure
Method: (c) LD50 was determined in mice according to the standard procedure.

SMILES	adrenergic blockade In vitro IC50 [1] [µg/mL]	ED50 [2] [mg/kg]	LD50 [3] [mg/kg]
CC(C)[C@@]1(NC(=O)[C@@H]2C[C@@H]3c4cccc5[nH]cc(c45)C[C@H]3N(C)C2)O[C@@]2(O)[C@@H]3CCCN3C(=O)[C@H](Cc3ccc(Cl)cc3)N2C1=O [5'-debenzyl-5'-p-chlorobenzyl dihydroergocristine]	0.03	0.02	190
CN1C[C@H](C(=O)N[C@]2(C)O[C@@]3(O)[C@@H]4CCCN4C(=O)[C@H](Cc4ccc(Cl)cc4)N3C2=O)C[C@@H]2c3cccc4[nH]cc(c34)C[C@H]21 [5'-debenzyl-5'-p-chlorobenzyl dihydroergotamine]	0.02	0.05	150
CN1C[C@H](C(=O)N[C@]2(C)O[C@@]3(O)[C@@H]4CCCN4C(=O)[C@H](Cc4ccc(Cl)cc4)N3C2=O)C=C2c3cccc4[nH]cc(c34)C[C@H]21 [5'-debenzyl-5'-p-chlorobenzyl ergotamine]	0.03	0.1	100
CC(C)[C@@]1(NC(=O)[C@@H]2C[C@@H]3c4cccc5[nH]cc(c45)C[C@H]3N(C)C2)O[C@@]2(O)[C@@H]3CCCN3C(=O)[C@H](Cc3ccccc3)N2C1=O [Dihydroergocristine, reference compound]		0.03	174
CN1C[C@H](C(=O)N[C@]2(C)O[C@@]3(O)[C@@H]4CCCN4C(=O)[C@H](Cc4ccccc4)N3C2=O)C[C@@H]2c3cccc4[nH]cc(c34)C[C@H]21 [Dihydroergotamine, reference compound]	0.02	0.08	118
CN1C[C@H](C(=O)N[C@]2(C)O[C@@]3(O)[C@@H]4CCCN4C(=O)[C@H](Cc4ccccc4)N3C2=O)C=C2c3cccc4[nH]cc(c34)C[C@H]21 [Ergotamine, reference compound]	0.07	0.2	70
